{
  "source": "patent US20210052566A1",
  "about": "“METHODS FOR TREATING HEPATITIS B VIRUS (HBV) INFECTION” (INSERM (INSTITUT NATIONAL DE LA SANTÉ ET DE LA RECHERCHE …, priority 2018, published 2021)",
  "key": {"[1]": {"biological_target": "SRSF10 (Homo sapiens, UniProt O75494)", "sequence (O75494 whole entry)": "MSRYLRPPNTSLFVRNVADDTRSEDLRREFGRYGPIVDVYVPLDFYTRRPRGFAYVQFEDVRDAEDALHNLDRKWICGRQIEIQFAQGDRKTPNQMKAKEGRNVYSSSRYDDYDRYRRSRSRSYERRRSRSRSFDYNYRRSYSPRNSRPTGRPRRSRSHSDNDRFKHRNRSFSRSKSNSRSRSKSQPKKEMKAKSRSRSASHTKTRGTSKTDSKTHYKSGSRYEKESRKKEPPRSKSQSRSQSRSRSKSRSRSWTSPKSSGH", "conditions": "cited from earlier work"}, "[2]": {"system": "HBV genotype D", "experiment": "De novo establishment of HBV infection/cccDNA in naive dHepaRG, genotype D (treatment before and during inoculation)", "type": "cell-based, Hepatitis B virus", "description": "(§1) FIG. 1. Experimental outlines. Treatment schemes: (a) Treatments in pre-infection: dHepaRG cells were treated for 24 h (at day −1) with 100 nM of PreS1 peptide (PreS1-pep) or 10 μM of 1C8, or untreated (NT). At day 0, cells were inoculated with HBV (MOI=250) or with HDV (MOI=25) in the presence of drugs for 24 h. For the tenofovir control (TDF at 10 μM), cells were treated at day 1 and 4 post-infection. Supernatant and cells were harvested at day 7 post-infection. (b) Treatments in post-infection: dHepaRG cells were inoculated with HBV (MOI=250) or with HDV (MOI=25). At days 4, 7 and 9 post infection, cells were treated with TDF 10 μM, lamivudine (3TC) at 10 μM, 1C8 10 μM or untreated (NT). Supernatant and cells were harvested at day 11 postinfection.\n(§2) FIG. 7. Effect of 1C8 on de novo establishment of ccDNA in dHepaRG (genotype D). […] B) HBs and HBe secreted antigens in supernatant were quantiUied by ELISA, whereas HBV DNA contained in virions was quantified by qPCR after viral nucleic acid extraction from supernatant. […] Statistics were done by two-tailed Mann-Whitney test, with following signiUicativity: *P<0.05, **P<0.01, ***P<0.001, ****P<0.0001. nd=not determined.\nHuman liver progenitor HepaRG cells were cultured in Williams medium (ThermoFisher) supplemented with 10% of FBS (Perbio), Penicillin/Streptomycin (500 U/mL), glutamine (2 mM), hydrocortisone Upjohn (2.5 mg/L; Serb laboratory), insulin (5 mg/L; Sigma Aldrich). […] The multiplicity of infection (MOI; expressed as virus genome equivalent/cell) is indicated in the figure legends, but was of 100 vge/cell if not precised.\nFrom cell culture supernatants, secreted HBe and HBs antigens were quantified by ELISA, using a chemiluminescence immunoassay kit (Autobio, China) following manufacturer's instructions. […]\nA HBV standard was used for quantification of extracellular viral DNA and RNA. For cccDNA quantification total DNA was digested by T5 exonuclease (New England Biolabs) for 6 hours at 37° C. then submitted to qPCR using Taqman Fast Advanced Master Mix (Life Technologies). […]"}, "[3]": {"system": "HDV genotype 1", "experiment": "Establishment of HDV infection in dHepaRG (treatment 24 h before and during inoculation)", "type": "cell-based, hepatitis delta virus", "conditions": "1C8 10 microM, Entry Inh. 100 nM", "description": "as §1, §2"}, "[4]": {"system": "HBV genotype D", "experiment": "HBV replication in persistently infected primary human hepatocytes (PHH)", "type": "cell-based, Hepatitis B virus", "conditions": "10 microM", "description": "FIG. 9. Effect of 1C8 on persistently infected primary human hepatocytes. Two different batches of PHH from two different donors were used in these experiments (Batch 1: panels A, B, and C; Batch 2: panels D, and E). A) PHH were infected with HBV genotype D at a MOI of 100 vge/cell for 4 days before being treated trice every 2-3 days with indicated molecules at a concentration of 10 microM. B) Intracellular total RNA were extracted from cells and subjected to RT-qPCR to detect HBV pgRNA and total HBV RNA. C) HBs and HBe secreted antigens in supernatant were quantified by ELISA. D) PHH were infected with HBV genotype D at a MOI of 100 vge/cell. 6 days after the infection, cells were treated five times with indicated molecules at a concentration of 10 microM. Supernatant was harvested after each treatment and cells were harvested at day 13 post infection. E) HBe and HBs secreted antigens in supernatant were quantified by ELISA. Results are the mean+SD of n=3 (panels A, B, and C) or n=4 (panels D and E).\nPrimary human hepatocytes (PHH) were freshly prepared from human liver resections obtained from the Centre Léon Bérard (Lyon) with French ministerial authorizations as previously described (Leycluse and Alexandre, 2010). […]\nSecreted HBe and HBs antigens and intracellular HBV RNA were analyzed as described in EXAMPLE 1."}},
  "data": [
    {"compound": "Cn1ccc(=O)c(C(=O)Nc2nsc3ccc([N+](=O)[O-])cc23)c1", "note": "[1C8, 4-pyridinonebenzisothiazole carboxamide]", "values": [
      {"measurement": "SRSF10 phosphorylation at serine 133", "setting": "[1]", "result": "inhibit SRSF10 phosphorylation at serine 133"},
      {"measurement": "inhibition at 10 µM", "setting": "[2]; Hepatitis B virus, dHepaRG treated before and during HBV inoculation, 10 microM", "result": 50, "unit": "%"},
      {"measurement": "other viral markers (intracellular RNAs, HBeAg, HBsAg), genotype D", "setting": "[2]; dHepaRG treated before and during inoculation, 10 microM", "result": "also reduced"},
      {"measurement": "inhibition of cccDNA establishment compared with controls (entry inhibitor, TDF)", "setting": "[2]; dHepaRG treated before and during inoculation, 1C8 and TDF 10 microM, Entry Inh. 100 nM, stated for genotypes D and C together", "result": "lower than that obtained with an entry inhibitor, but higher than that obtained with a NUC"},
      {"measurement": "block of the establishment of HDV infections", "setting": "[3]", "result": "unable to block"},
      {"measurement": "amount of intracellular viral RNAs (total and pgRNA)", "setting": "[4]", "result": "significant reduction"},
      {"measurement": "decrease of secreted viral antigens HBe and HBs (viral replication)", "setting": "[4]; two donors, MOI 100 vge/cell", "result": "> 60", "unit": "%"}
    ]}
  ]
}
